Data from US20110183954A1, “TRICYCLIC 2,4-DIAMINO-L,3,5-TRIAZINE DERIVATIVES USEFUL FOR THE TREATMENT OF CANCER AND MYELOPROLIFERATIVE DISORDERS” (ASTRAZENECA AB, priority 2008, published 2011).

Target: human JAK2 (Homo sapiens, UniProt O60674)
Assay: Method 1 (JAK2): Amplified Luminescent Proximity Assay (Alphascreen)
Assay type: biochemical
Design: His6 (C); purchased Upstate Biotechnology; host or cells: baculovirus in Sf21 cells
Details: 150 pM JAK2 enzyme, 5 mM ATP, 60 minutes, room temperature, read-out: IC50 (JAK inhibitory activity, Method 1 (JAK2))
Description: JAK2 kinase activity may be determined by measuring the kinase's ability to phosphorylate synthetic tyrosine residues within a generic polypeptide substrate using an Amplified Luminescent Proximity Assay (Alphascreen) technology (PerkinElmer, 549 Albany Street, Boston, Mass.).
To measure JAK2 kinase activity, a commercially available purified enzyme may be used. The enzyme may be a C-terminal His6-tagged, recombinant, human JAK2, amino acids 808-end, (Genbank Accession number NM 004972) expressed by baculovirus in Sf21 cells (Upstate Biotechnology MA). After incubation of the kinase with a biotinylated substrate and adenosine triphosphate (ATP) for 60 minutes at room temperature, the kinase reaction may be stopped by the addition of 30 mM ethylenediaminetetraacetic acid (EDTA). The reaction may be performed in 384 well microtitre plates and the reaction products may be detected with the addition of streptavidin coated Donor Beads and phosphotyrosine-specific antibodies coated Acceptor Beads using the EnVision Multilabel Plate Reader after an overnight incubation at room temperature.

Sequence of human JAK2 (O60674 808-1132 limits assumed): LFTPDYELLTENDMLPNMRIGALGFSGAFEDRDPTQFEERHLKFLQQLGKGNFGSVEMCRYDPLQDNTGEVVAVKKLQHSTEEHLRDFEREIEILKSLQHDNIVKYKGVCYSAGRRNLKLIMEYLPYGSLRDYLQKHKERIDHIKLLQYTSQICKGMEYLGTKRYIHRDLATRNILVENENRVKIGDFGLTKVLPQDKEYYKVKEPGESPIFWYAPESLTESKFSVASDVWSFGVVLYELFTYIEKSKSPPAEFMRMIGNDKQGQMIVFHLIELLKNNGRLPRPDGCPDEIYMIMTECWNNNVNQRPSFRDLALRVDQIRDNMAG

CC(Nc1nc(Nc2cn(C)cn2)nc(N2CCOCC2)n1)c1ncc(F)cc1F (racemic) [Example 10, N-[1-(3,5-Difluoropyridin-2-yl)ethyl]-N′-(1-methyl-1H-imidazol-4-yl)-6-morpholin-4-yl-1,3,5-triazine-2,4-diamine]
IC50: 4 nM

C[C@@H](Nc1nc(Nc2cn(C)cn2)nc(N2CCOCC2)n1)c1ncc(F)cc1F (single isomer, unassigned) [Example 10(a)]
IC50: 190 nM

C[C@H](Nc1nc(Nc2cn(C)cn2)nc(N2CCOCC2)n1)c1ncc(F)cc1F (single isomer, unassigned) [Example 10(b)]
IC50: < 8 nM

COC[C@H](Nc1nc(Nc2cn(C)cn2)nc(N2C[C@@H](C)O[C@@H](C)C2)n1)c1ncc(F)cc1F [Example 1, N-[(1R)-1-(3,5-Difluoropyridin-2-yl)-2-methoxyethyl]-6-[(2R,6S)-2,6-dimethylmorpholin-4-yl]-N′-(1-methyl-1H-imidazol-4-yl)-1,3,5-triazine-2,4-diamine]
IC50: 18 nM

COC[C@H](Nc1nc(Nc2cn(C)cn2)nc(N2CCOC(C)C2)n1)c1ncc(F)cc1F (stereo partly drawn) [Example 2, N-[(1R)-1-(3,5-Difluoropyridin-2-yl)-2-methoxyethyl]-N′-(1-methyl-1H-imidazol-4-yl)-6-(2-methylmorpholin-4-yl)-1,3,5-triazine-2,4-diamine]
IC50: 11 nM

COC[C@H](Nc1nc(Nc2cn(C)cn2)nc(N2CCOC(C)(C)C2)n1)c1ncc(F)cc1F [Example 3, N-[(1R)-1-(3,5-Difluoropyridin-2-yl)-2-methoxyethyl]-6-(2,2-dimethylmorpholin-4-yl)-N-(1-methyl-1H-imidazol-4-yl)-1,3,5-triazine-2,4-diamine]
IC50: 9 nM

COC[C@H](Nc1nc(Nc2cn(C)cn2)nc(N2CCOCC2)n1)c1ncc(F)cc1F [Example 4, N-[(1R)-1-(3,5-Difluoropyridin-2-yl)-2-methoxyethyl]-N′-(1-methyl-1H-imidazol-4-yl)-6-morpholin-4-yl-1,3,5-triazine-2,4-diamine]
IC50: 4 nM

C[C@H](Nc1nc(Nc2cn(C)cn2)nc(N2CCOCC2)n1)c1ncc(F)cn1 [Example 5, N-[(1S)-1-(5-Fluoropyrimidin-2-yl)ethyl]-N′-(1-methyl-1H-imidazol-4-yl)-6-morpholin-4-yl-1,3,5-triazine-2,4-diamine]
IC50: 9 nM

C[C@H](Nc1nc(Nc2cn(CCc3ccccc3)cn2)nc(N2CCOCC2)n1)c1ncc(F)cn1 [Example 6, N-[(1S)-1-(5-Fluoropyrimidin-2-yl)ethyl]-6-morpholin-4-yl-N′-[1-(2-phenylethyl)-1H-imidazol-4-yl]-1,3,5-triazine-2,4-diamine]
IC50: 283 nM

C[C@H](Nc1nc(Nc2ncc(C#N)s2)nc(N2CCOCC2)n1)c1ncc(F)cn1 [Example 7, 2-[(4-{[(1S)-1-(5-Fluoropyrimidin-2-yl)ethyl]amino}-6-morpholin-4-yl-1,3,5-triazin-2-yl)amino]-1,3-thiazole-5-carbonitrile]
IC50: 3170 nM

Cc1cnc(Nc2nc(N[C@@H](C)c3ncc(F)cn3)nc(N3CCOCC3)n2)s1 [Example 8, N-[(1S)-1-(5-Fluoropyrimidin-2-yl)ethyl]-N′-(5-methyl-1,3-thiazol-2-yl)-6-morpholin-4-yl-1,3,5-triazine-2,4-diamine]
IC50: 4 nM

C[C@H](Nc1nc(Nc2cn(C)cn2)nc(N2CCC(F)(F)CC2)n1)c1ncc(F)cc1F [Example 9, 6-(4,4-Difluoropiperidin-1-yl)-N-[(1S)-1-(3,5-difluoropyridin-2-yl)ethyl]-N-(1-methyl-1H-imidazol-4-yl)-1,3,5-triazine-2,4-diamine]
IC50: 4 nM

C[C@H](Nc1nc(Nc2cn(C)cn2)nc(N2CCC(F)(F)CC2)n1)c1ncc(F)cn1 [Example 14, 6-(4,4-Difluoropiperidin-1-yl)-N-[(1S)-1-(5-fluoropyrimidin-2-yl)ethyl]-N′-(1-methyl-1H-imidazol-4-yl)-1,3,5-triazine-2,4-diamine]
IC50: 7 nM

C[C@H](Nc1nc(Nc2cn(CC#N)cn2)nc(N2CCOCC2)n1)c1ncc(F)cn1 [Example 15, {4-[(4-{[(1S)-1-(5-Fluoropyrimidin-2-yl)ethyl]amino}-6-morpholin-4-yl-1,3,5-triazin-2-yl)amino]-1H-imidazol-1-yl}acetonitrile]
IC50: 873 nM

COCn1cnc(Nc2nc(N[C@@H](C)c3ncc(F)cn3)nc(N3CCOCC3)n2)c1 [Example 16, N-[(1S)-1-(5-Fluoropyrimidin-2-yl)ethyl]-N′-[1-(methoxymethyl)-1H-imidazol-4-yl]-6-morpholin-4-yl-1,3,5-triazine-2,4-diamine]
IC50: 2870 nM

CC(C)n1cnc(Nc2nc(N[C@@H](C)c3ncc(F)cn3)nc(N3CCOCC3)n2)c1 [Example 17, N-[(1S)-1-(5-Fluoropyrimidin-2-yl)ethyl]-N′-(1-isopropyl-1H-imidazol-4-yl)-6-morpholin-4-yl-1,3,5-triazine-2,4-diamine]
IC50: 2880 nM

C[C@H](Nc1nc(Nc2cn(C)cn2)nc(N2CC(F)C2)n1)c1ncc(F)cc1F [Example 18, N-[(1S)-1-(3,5-Difluoropyridin-2-yl)ethyl]-6-(3-fluoroazetidin-1-yl)-N′-(1-methyl-1H-imidazol-4-yl)-1,3,5-triazine-2,4-diamine]
IC50: 13 nM

COC1CN(c2nc(Nc3cn(C)cn3)nc(N[C@@H](C)c3ncc(F)cc3F)n2)C1 [Example 19, N-[(1S)-1-(3,5-Difluoropyridin-2-yl)ethyl]-6-(3-methoxyazetidin-1-yl)-N′-(1-methyl-1H-imidazol-4-yl)-1,3,5-triazine-2,4-diamine]
IC50: 3 nM

COC1CN(c2nc(Nc3cn(C)cn3)nc(N[C@@H](C)c3ncc(F)cn3)n2)C1 [Example 20, N-[(1S)-1-(5-Fluoropyrimidin-2-yl)ethyl]-6-(3-methoxyazetidin-1-yl)-N′-(1-methyl-1H-imidazol-4-yl)-1,3,5-triazine-2,4-diamine]
IC50: 7 nM

C[C@H](Nc1nc(Nc2cn(C)cn2)nc(N2CCC(F)CC2)n1)c1ncc(F)cc1F [Example 21, N-[(1S)-1-(3,5-Difluoropyridin-2-yl)ethyl]-6-(4-fluoropiperidin-1-yl)-N′-(1-methyl-1H-imidazol-4-yl)-1,3,5-triazine-2,4-diamine]
IC50: 4 nM

C[C@H](Nc1nc(Nc2cn(C)cn2)nc(N2CCOC[C@H]2CO)n1)c1ncc(F)cc1F [Example 22, [(3R)-4-(4-{[(1S)-1-(3,5-difluoropyridin-2-yl)ethyl]amino}-6-[(1-methyl-1H-imidazol-4-yl)amino]-1,3,5-triazin-2-yl)morpholin-3-yl]methanol]
IC50: 4 nM

C[C@H](Nc1nc(Nc2c[nH]cn2)nc(N2CCOCC2)n1)c1ncc(F)cn1 [Example 23, N-[(1S)-1-(5-Fluoropyrimidin-2-yl)ethyl]-N′-1H-imidazol-4-yl-6-morpholin-4-yl-1,3,5-triazine-2,4-diamine]
IC50: 86 nM

C[C@H](Nc1nc(Nc2cscn2)nc(N2CCOCC2)n1)c1ncc(F)cn1 [Example 26, N-[(1S)-1-(5-Fluoropyrimidin-2-yl)ethyl]-6-morpholin-4-yl-N′-1,3-thiazol-4-yl-1,3,5-triazine-2,4-diamine]
IC50: 219 nM

C[C@H](Nc1nc(Nc2cn(C)cn2)nc(N2CCOCC2)n1)c1ccc(C#N)cc1 [Example 28, 4-[(1S)-1-({4-[(1-methyl-1H-imidazol-4-yl)amino]-6-morpholin-4-yl-1,3,5-triazin-2-yl}amino)ethyl]benzonitrile]
IC50: 798 nM
